One data set has as its target KRAS G12D (Homo sapiens, UniProt P01116, G12D). As to the kind of experiment: GDP-GTP exchange assay (bodipy-GDP/GppNHp, SOS1), KRAS G12D. It counts as biochemical. Conditions: Table H, column G12D; for compounds isolated as several atropisomers/diastereoisomers the value for the most potent isomer is quoted; read-out: KRAS G12D exchange assay IC50.
A further data set deals with KRAS G12V (Homo sapiens, UniProt P01116, G12V). As to the kind of experiment: GDP-GTP exchange assay (bodipy-GDP/GppNHp, SOS1), KRAS G12V. Conditions: Table H, column G12V; for compounds isolated as several atropisomers/diastereoisomers the value for the most potent isomer is quoted; read-out: KRAS G12V exchange assay IC50. The data set is classed as biochemical.
KRAS G12V, sequence (P01116 1-188 isoform P01116-2 G12V): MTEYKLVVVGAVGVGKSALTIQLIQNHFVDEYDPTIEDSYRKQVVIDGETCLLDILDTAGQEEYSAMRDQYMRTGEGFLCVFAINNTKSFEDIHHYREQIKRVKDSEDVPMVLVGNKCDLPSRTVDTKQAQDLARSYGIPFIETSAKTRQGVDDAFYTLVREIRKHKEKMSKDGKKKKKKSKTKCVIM
Another data set relates to Caco-2 cells. As to the kind of experiment: Caco2 assay (Papp A-B). The data set is classed as in vitro ADME. Conditions: test compound 50 μM, 120 min, 37° C. As to the method:
Caco-2 cells are grown at 37° C. in an atmosphere of 5% CO2 in DMEM growth medium supplemented with 10% (v/v) fetal bovine serum, 1% (v/v) nonessential amino acids, penicillin (100 U/mL), and streptomycin (100 μg/mL). Confluent cell monolayers are subcultured every 7 days or 4 days for Caco-2 by treatment with 0.05% trypsin containing […]. Caco-2 cells are seeded in 96-well Transwell plates. The seeding density for Caco-2 cells is 14,000 cells/well. DMEM growth medium is replaced every other day after seeding. Cell monolayers are used for transport assays between 22 and 25 days for Caco-2 cells.
Cell culture medium is removed and replaced with HBSS. To measure the TEER, the HBSS is added into the donor compartment (apical side) and receiver compartment (basolateral side). The TEER is measured by using a REMS Autosampler to ensure the integrity of the cell monolayers. Caco-2 cell monolayers with TEER values 300 Ω·cm^2 are used for transport experiments. To determine the Papp in the absorptive direction (A-B), solution of test compound (50 μM) in HBSS is added to the donor compartment (apical side), while HBSS solution with 4% BSA is added to the receiver compartment (basolateral side). The apical volume was 0.075 mL, and the basolateral volume is 0.25 mL. The incubation period is 120 min. at 37° C. in an atmosphere of 5% CO2. At the end of the incubation period, samples from the donor and receiver sides are removed and an equal volume of MeCN is added for protein precipitation. The supernatants are collected after centrifugation (3000 rpm, Allegra X-14R Centrifuge from Beckman Coulter, Indianapolis, IN) for LCMS analysis. The permeability value is determined according to the equation:
[formula] • where the flux rate (F, mass/time) is calculated from the slope of cumulative amounts of compound of interest on the receiver side, SA is the surface area of the cell membrane, VD is the donor volume, and MD is the initial amount of the solution in the donor chamber.
The symbol “+” indicates a Caco-2 value of ≤0.5, “++” indicates a Caco-2 value of >0.5 but ≤1; and “+++” indicates a Caco-2 value of >1. “NA” indicates IC50 not available.

By IC50 is commonly meant the concentration at which inhibition is half-maximal.

Bounds are passed on as bounds.

KRAS G12D, sequence (P01116 1-188 isoform P01116-2 G12D): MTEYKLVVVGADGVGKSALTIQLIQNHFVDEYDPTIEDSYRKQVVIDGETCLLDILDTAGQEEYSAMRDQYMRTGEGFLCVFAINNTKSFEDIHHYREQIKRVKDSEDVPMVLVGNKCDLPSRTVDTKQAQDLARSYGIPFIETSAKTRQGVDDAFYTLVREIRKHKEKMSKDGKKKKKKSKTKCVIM

With `COc1ncccc1O[C@H]1C[C@H](c2cc3c(C)nc4c(F)c(-c5cccc(Cl)c5Cl)c(CCC#N)cc4c3n2[C@H]2[C@H]3CN[C@@H]2C3)N(C(=O)C2CC2)C1` [Example 1, 3-(1-((1R,4R,5S)-2-Azabicyclo[2.1.1]hexan-5-yl)-2-((2R,4S)-1-(cyclopropanecarbonyl)-4-((2-methoxypyridin-3-yl)oxy)pyrrolidin-2-yl)-7-(2,3-dichlorophenyl)-6-fluoro-4-methyl-1H-pyrrolo[3,2-c]quinolin-8-yl)propanenitrile], the IC50 at KRAS G12D and on KRAS G12V was at most 100 nM throughout. Moreover, the Caco-2 result in the data set with Caco-2 cells was “+++ (a Caco-2 value of >1)”.
On to `COc1cc(O[C@H]2C[C@H](c3cc4c(C(C)O)nc5c(F)c(-c6cccc(Cl)c6Cl)c(CCC#N)cc5c4n3[C@H]3[C@H]4CN[C@@H]3C4)N(C(=O)C3CC3)C2)ccn1` (stereo partly drawn) [Example 2, 3-(1-((1R,4R,5S)-2-Azabicyclo[2.1.1]hexan-5-yl)-2-((2R,4S)-1-(cyclopropanecarbonyl)-4-((2-methoxypyridin-4-yl)oxy)pyrrolidin-2-yl)-7-(2,3-dichlorophenyl)-6-fluoro-4-(1-hydroxyethyl)-1H-pyrrolo[3,2-c]quinolin-8-yl)propanenitrile], for which the IC50 on KRAS G12D and at KRAS G12V was at most 100 nM in each case. In addition, the Caco-2 entry with Caco-2 cells is reported as “+++ (a Caco-2 value of >1)”.
Take `Cc1cc(CO[C@H]2C[C@H](c3cc4c(C)nc5c(F)c(-c6cccc(Cl)c6Cl)c(CCC#N)cc5c4n3[C@H]3[C@H]4CN[C@@H]3C4)N(C(=O)C3CC3)[C@@H]2C)ns1` [Example 3]: the IC50 at KRAS G12D and on KRAS G12V was at most 100 nM throughout. For the same compound, the Caco-2 result in the data set with Caco-2 cells is “++ (a Caco-2 value of >0.5 but ≤1)”.
`Cc1nc2c(F)c(-c3cccc(Cl)c3Cl)c(CCC#N)cc2c2c1cc([C@H]1C[C@H](n3cc(C(C)(C)C)nn3)CN1C(=O)C1CC1)n2[C@H]1[C@H]2CN[C@@H]1C2` [Example 4, 3-(1-((1R,4R,5S)-2-Azabicyclo[2.1.1]hexan-5-yl)-2-((2R,4S)-4-(4-(tert-butyl)-1H-1,2,3-triazol-1-yl)-1-(cyclopropanecarbonyl)pyrrolidin-2-yl)-7-(2,3-dichlorophenyl)-6-fluoro-4-methyl-1H-pyrrolo[3,2-c]quinolin-8-yl)propanenitrile]: the IC50 on KRAS G12D and on KRAS G12V was at most 100 nM throughout. Also, in the data set with Caco-2 cells, the Caco-2 result is “+++ (a Caco-2 value of >1)”.
Turning to `Cc1nc2c(F)c(-c3cccc(Cl)c3Cl)c(CCC#N)cc2c2c1cc([C@H]1C[C@H](Oc3ccccn3)CN1C(=O)C1CC1)n2[C@H]1[C@H]2CN[C@@H]1C2` [Example 5, 3-(1-((1R,4R,5S)-2-Azabicyclo[2.1.1]hexan-5-yl)-2-((2R,4S)-1-(cyclopropanecarbonyl)-4-(pyridin-2-yloxy)pyrrolidin-2-yl)-7-(2,3-dichlorophenyl)-6-fluoro-4-methyl-1H-pyrrolo[3,2-c]quinolin-8-yl)propanenitrile], the IC50 at KRAS G12D and at KRAS G12V was at most 100 nM in each case. The Caco-2 result in the data set with Caco-2 cells is “+++ (a Caco-2 value of >1)”.
For the compound `Cc1nc2c(F)c(-c3cccc(Cl)c3Cl)c(CCC#N)cc2c2c1cc([C@H]1C[C@H](OCc3noc4ccccc34)CN1C(=O)C1CC1)n2[C@H]1[C@H]2CN[C@@H]1C2` [Example 6], the 50% inhibitory concentration (IC50) on KRAS G12D and on KRAS G12V was at most 100 nM throughout. The Caco-2 result in the data set on Caco-2 cells is reported as “+ (a Caco-2 value of ≤0.5)”.
On to `Cc1cc(CO[C@H]2C[C@H](c3cc4c(C)nc5c(F)c(-c6cccc(Cl)c6Cl)c(CCC#N)cc5c4n3[C@H]3[C@H]4CN[C@@H]3C4)N(C(=O)C3CC3)C2)no1` [Example 7], for which the half-maximal inhibitory concentration (IC50) at KRAS G12D and on KRAS G12V was at most 100 nM in each case. The Caco-2 entry in the data set on Caco-2 cells was “++ (a Caco-2 value of >0.5 but ≤1)”.
As to `Cc1nc2c(F)c(-c3cccc(Cl)c3Cl)c(CCC#N)cc2c2c1cc([C@H]1C[C@H](OCc3ccnn3C(F)F)CN1C(=O)C1CC1)n2[C@H]1[C@H]2CN[C@@H]1C2` [Example 8], the half-maximal inhibitory concentration (IC50) at KRAS G12D and on KRAS G12V was at most 100 nM each time. Moreover, the Caco-2 entry in the data set on Caco-2 cells is on record as “+ (a Caco-2 value of ≤0.5)”.
For `Cc1nc2c(F)c(-c3cccc(Cl)c3Cl)c(CCC#N)cc2c2c1cc([C@H]1C[C@H](OCc3nccs3)CN1C(=O)C1CC1)n2[C@H]1[C@H]2CN[C@@H]1C2` [Example 9], the IC50 on KRAS G12D and on KRAS G12V was at most 100 nM in each case. The Caco-2 result in the data set with Caco-2 cells is “+ (a Caco-2 value of ≤0.5)”.
As to `Cc1nc2c(F)c(-c3cccc(Cl)c3Cl)c(CCC#N)cc2c2c1cc([C@H]1C[C@H](OCc3cccc(C(F)(F)F)n3)CN1C(=O)C1CC1)n2[C@H]1[C@H]2CN[C@@H]1C2` [Example 10], the IC50 on KRAS G12D and on KRAS G12V was at most 100 nM each time. In addition, the Caco-2 result with Caco-2 cells was “++ (a Caco-2 value of >0.5 but ≤1)”.
`Cc1nc2c(F)c(-c3cccc(Cl)c3Cl)c(CCC#N)cc2c2c1cc([C@H]1C[C@H](OCc3cc(C(F)(F)F)sn3)CN1C(=O)C1CC1)n2[C@H]1[C@H]2CN[C@@H]1C2` [Example 11]: the IC50 on KRAS G12D and at KRAS G12V was at most 100 nM in each case. The Caco-2 entry in the data set on Caco-2 cells is “+ (a Caco-2 value of ≤0.5)”.
For the compound `Cc1nc2c(F)c(-c3cccc(Cl)c3Cl)c(CCC#N)cc2c2c1cc([C@H]1C[C@H](OCc3ccon3)CN1C(=O)C1CC1)n2[C@H]1[C@H]2CN[C@@H]1C2` [Example 12], the IC50 on KRAS G12D and on KRAS G12V was at most 100 nM each time. For the same compound, in the data set on Caco-2 cells, the Caco-2 result is listed as “+ (a Caco-2 value of ≤0.5)”.
As for `Cc1nc2c(F)c(-c3cccc(Cl)c3Cl)c(CCC#N)cc2c2c1cc([C@H]1C[C@H](OCc3cnsn3)CN1C(=O)C1CC1)n2[C@H]1[C@H]2CN[C@@H]1C2` [Example 13], the IC50 at KRAS G12D and on KRAS G12V was at most 100 nM each time. For the same compound, the Caco-2 result in the data set on Caco-2 cells was “+ (a Caco-2 value of ≤0.5)”.
Regarding `Cc1nc2c(F)c(-c3cccc(Cl)c3Cl)c(CCC#N)cc2c2c1cc([C@H]1C[C@H](OCc3ccsn3)CN1C(=O)C1CC1)n2[C@H]1[C@H]2CN[C@@H]1C2` [Example 14], the IC50 at KRAS G12D and at KRAS G12V was at most 100 nM throughout. Moreover, the Caco-2 entry in the data set with Caco-2 cells is given as “+ (a Caco-2 value of ≤0.5)”.
Regarding `Cc1cc(CO[C@H]2C[C@H](c3cc4c(C)nc5c(F)c(-c6cccc(Cl)c6Cl)c(CCC#N)cc5c4n3[C@H]3[C@H]4CN[C@@H]3C4)N(C(=O)C3CC3)C2)ns1` [Example 15], the IC50 at KRAS G12D and at KRAS G12V was at most 100 nM in each case. Moreover, in the data set on Caco-2 cells, the Caco-2 entry was “+++ (a Caco-2 value of >1)”.
Consider `COc1cccc(F)c1CO[C@H]1C[C@H](c2cc3c(C)nc4c(F)c(-c5cccc(Cl)c5Cl)c(CCC#N)cc4c3n2[C@H]2[C@H]3CN[C@@H]2C3)N(C(=O)C2CC2)C1` [Example 16], for which the IC50 on KRAS G12D and at KRAS G12V was at most 100 nM in each case. Moreover, the Caco-2 entry in the data set with Caco-2 cells was “++ (a Caco-2 value of >0.5 but ≤1)”.
As for `Cc1nc2c(F)c(-c3cccc(Cl)c3Cl)c(CCC#N)cc2c2c1cc([C@H]1C[C@H](OCc3ccc(F)cc3C#N)CN1C(=O)C1CC1)n2[C@H]1[C@H]2CN[C@@H]1C2` [Example 17], the IC50 on KRAS G12D and at KRAS G12V was at most 100 nM each time. Also, in the data set on Caco-2 cells, the Caco-2 entry is on record as “+ (a Caco-2 value of ≤0.5)”.
On to `Cc1nc2c(F)c(-c3cccc(Cl)c3Cl)c(CCC#N)cc2c2c1cc([C@H]1C[C@H](OCc3ccccc3C(F)F)CN1C(=O)C1CC1)n2[C@H]1[C@H]2CN[C@@H]1C2` [Example 18], for which the IC50 on KRAS G12D and at KRAS G12V was at most 100 nM throughout. Besides, in the data set on Caco-2 cells, the Caco-2 entry was “+ (a Caco-2 value of ≤0.5)”.
In the case of `Cc1cccc(F)c1CO[C@H]1C[C@H](c2cc3c(C)nc4c(F)c(-c5cccc(Cl)c5Cl)c(CCC#N)cc4c3n2[C@H]2[C@H]3CN[C@@H]2C3)N(C(=O)C2CC2)C1` [Example 19], the IC50 at KRAS G12D and on KRAS G12V was at most 100 nM throughout. In the data set on Caco-2 cells, the Caco-2 entry is recorded as “+ (a Caco-2 value of ≤0.5)”.
Take `Cc1nc2c(F)c(-c3cccc(Cl)c3Cl)c(CCC#N)cc2c2c1cc([C@H]1C[C@H](OCc3ccccc3F)CN1C(=O)C1CC1)n2[C@H]1[C@H]2CN[C@@H]1C2` [Example 20]: the IC50 at KRAS G12D and on KRAS G12V was at most 100 nM in each case. The Caco-2 entry with Caco-2 cells was “+ (a Caco-2 value of ≤0.5)”.
In the case of `Cc1ccccc1CO[C@H]1C[C@H](c2cc3c(C)nc4c(F)c(-c5cccc(Cl)c5Cl)c(CCC#N)cc4c3n2[C@H]2[C@H]3CN[C@@H]2C3)N(C(=O)C2CC2)C1` [Example 21], the IC50 at KRAS G12D and at KRAS G12V was at most 100 nM throughout. Further, the Caco-2 result in the data set on Caco-2 cells is “+ (a Caco-2 value of ≤0.5)”.

These data come from patent US20240390340A1 (INCYTE CORPORATION, priority 2023, published 2024).
